Reference: paper PMC5453556, “Designing small molecules to target cryptic pockets yields both positive and negative allosteric modulators” (PLoS ONE, 2017)

How the values were obtained:
Format in all cases: biochemical
[1] = biological target: TEM β-lactamase (TEM, M182T variant) (Escherichia coli, UniProt P62593, M180T); test: TEM β-lactamase nitrocefin hydrolysis activity assay (UV-vis, 482 nm); settings: for % change in rate: 50 µM nitrocefin; for kcat: TEM + 100 µM compound, nitrocefin
chymotrypsin = biological target: T1, chymotrypsin (Bos taurus, UniProt P00766); test: Chymotrypsin reaction, test for non-specific activity (410 nm); settings: alternative enzyme chymotrypsin; 30 nM enzyme, 200 μM N-succinyl-Ala-Ala-Pro-Phe p-nitroanilide, 25°C
T1 construct: purchased Sigma-Aldrich
Method: (§1) Chymotrypsin reactions were followed at 410 nm using 30 nM enzyme and 200 μM N-succinyl-Ala-Ala-Pro-Phe p-nitroanilide at 25°C. β-galactosidase reactions were followed at 420 nm using 4 nM enzyme and 1 mM 2-nitrophenyl β-D-galactopyranoside at 37°C. […] Enzymes and substrates were purchased from Sigma-Aldrich.

β-galactosidase = β-galactosidase reaction, test for non-specific activity (420 nm); settings: alternative enzyme β-galactosidase; 4 nM enzyme, 1 mM 2-nitrophenyl β-D-galactopyranoside, 37°C
Method: as §1

TEM T265V = TEM T265V (Escherichia coli, UniProt P62593, M180T/T261V)
TEM L220N = TEM L220N (Escherichia coli, UniProt P62593, L218N/M180T)
[2] = detergent-dependence: 0% Triton-X
[3] = detergent-dependence: 0.01% Triton-X

| SMILES | % change in rate ([1]; 10x enzyme test: 1 nM TEM) | % change in rate ([1]; 10x enzyme test: 10 nM TEM) | kcat [1] | % modulation of kcat / Km ([1]; TEM, 100 µM compound vs no compound) | decrease of kcat/Km ([1]; TEM, as worded in the text (decreasing kcat/Km by)) | % change in rate [1, 2] | % change in rate [1, 3] | % change in rate (chymotrypsin) | % change in rate (β-galactosidase) | kcat (TEM T265V) | kcat (TEM L220N) |
| --- | --- | --- | --- | --- | --- | --- | --- | --- | --- | --- | --- |
| COc1cccc(C(=O)C[C@@H](c2ccccc2)C(C)(C)[N+](=O)[O-])c1 (racemic) [compound 3] | -47% | -48% | 256 ± 28 s⁻¹ | -59% | 59% | -40% | -45% | -2% | +3% |  |  |
| c1nc(NCCCN2CCOCC2)c2c3c(sc2n1)CCCC3 [compound 2] | +38% | +33% | 334 ± 5 s⁻¹ |  |  | +30% | +33% | -1% | +5% | 307 ± 17 s⁻¹ |  |
| Oc1ccc(CC[C@H]2CC[C@H](c3ccc(O)cc3)CO2)cc1 (relative stereo) [compound 1] | +65% |  | 527 ± 8 s⁻¹ |  |  |  | +66% | -5% | +2% |  | 5.2 ± 0.3 s⁻¹ |
